Patent US9464064B2, “HCV helicase inhibitors and methods of use thereof” (University of Kansas, priority 2011, dated 2016)

Biological target: T1, HCV NS3 helicase NS3h_1b(con1) (Hepatitis C virus genotype 1b, UniProt Q9WMX2)
T1 construct: truncated C-terminally His-tagged NS3 proteins lacking the N-terminal protease, called NS3h; His-tag (C); made in house
Experiment: MBHA screen of NCI mechanistic set library at 20 μM (percent inhibition, compound interference)
Type: biochemical
Conditions: compounds at 20 μM; for Inh. (%) (Inhibition): calculated from Equation 1
In short: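 Molecular beacon-based DNA unwinding assay; compounds screened at 20 μM in triplicate, with DMSO-only negative and 500 nM dT20 positive controls. Fluorescence (ex 643/em 670 nm) was read before and 30 min after adding ATP to 1 mM. Percent inhibition came from the change relative to DMSO controls; interference from pre-ATP fluorescence versus DMSO controls.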

[1] = assay interference calculated with Equation 2 (fluorescence vs DMSO-only controls before ATP)
[2] = MBHA with DNA substrate, assay interference calculated with Equation 2

T1 sequence (Q9WMX2 1192-1657): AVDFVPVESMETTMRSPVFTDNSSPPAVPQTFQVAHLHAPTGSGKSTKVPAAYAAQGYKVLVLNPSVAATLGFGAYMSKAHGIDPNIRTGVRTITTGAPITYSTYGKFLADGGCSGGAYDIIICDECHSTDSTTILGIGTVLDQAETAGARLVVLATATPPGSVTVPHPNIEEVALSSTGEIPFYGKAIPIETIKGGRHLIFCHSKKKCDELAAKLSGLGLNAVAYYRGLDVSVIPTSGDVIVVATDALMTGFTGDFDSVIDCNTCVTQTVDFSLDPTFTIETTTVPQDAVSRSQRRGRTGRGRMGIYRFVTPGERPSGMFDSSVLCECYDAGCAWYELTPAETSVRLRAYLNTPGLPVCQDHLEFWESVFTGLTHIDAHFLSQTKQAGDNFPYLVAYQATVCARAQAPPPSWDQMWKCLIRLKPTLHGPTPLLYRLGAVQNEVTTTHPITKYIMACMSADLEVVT

Structure (SMILES)	Inh. (%) (Inhibition) (MBHA with a DNA substrate)	Int.* (Ratio) (Interference) [1]	Int.* (Ratio) (Interference) [2]	Inh. (%) (Inhibition) (MBHA with DNA substrate)
CCCN(CCC)C(=S)Sc1nc(C)nc(N2CCN(c3nc(C)nc(SC(=S)N(CCC)CCC)c3[N+](=O)[O-])CC2)c1[N+](=O)[O-] [Compound 675593]	−3.8%	1.04 Ratio		
COc1ccccc1[S+]([O-])Nc1ccccc1 (centres unmarked) [Compound 676561]			0.96 Ratio	17.1%
O=C(O)/C=C\C(=O)O.[N-]=[N+]=Nc1ccc2c(c1)Sc1ccccc1N2CCCCN1CCN(Cc2ccc(C(=O)c3ccccc3)cc2)CC1 [Compound 676963]			0.46 Ratio	−1.7%
COc1ccc(NC(=O)CC(=O)N2N=C(C)C(N=Nc3ccc(S(=O)(=O)c4ccc(N=NC5C(=O)N(C(=O)CC(=O)Nc6ccc(OC)cc6)N=C5C)cc4)cc3)C2=O)cc1 (centres unmarked) [Compound 677392]			1.00 Ratio	−18.1%
COc1ccc(OC)c2nc3c(C(=O)NCCN(C)C)cccc3nc12.Cl [Compound 678917]			0.89 Ratio	28.1%
CN(C)CCNC(=O)c1cccc2[nH]c(-c3ccncc3)nc12.Cl [Compound 678932]			1.05 Ratio	0.6%
COC(=O)c1c[nH]c2c1-c1cc(C(=O)OCc3ccccc3)n(S(=O)(=O)c3ccc(C)cc3)c1C(=O)C2=O [Compound 679524]			0.85 Ratio	−2.5%
COC(=O)c1cc(-c2c[nH]cc2C(=O)OCc2ccccc2)cn1S(=O)(=O)c1ccc(C)cc1 [Compound 679527]			0.98 Ratio	1.5%
CC1=C/C(=N\OCC(=O)O)CC(c2ccc(C(C)C)cc2)C1 (centres unmarked) [Compound 680506]	10.2%	0.92 Ratio		
Cl.NC1(CCNC(=O)c2ccccc2)CCN(C(=O)c2ccccc2)CC1 [Compound 680509]	−35.7%	0.99 Ratio		
Cc1cc(N(C)C)ccc1N=Nc1ccc2ncccc2c1 [Compound 680516]			0.93 Ratio	−1.4%
N#CC(NCc1cccc(CNC(C#N)c2ccccc2)c1)c1ccccc1 (centres unmarked) [Compound 681730]			0.88 Ratio	−2.0%
CCC(C#N)(c1ccccc1)N(CCc1ccccc1)C(=O)c1ccccc1 (centres unmarked) [Compound 681741]			0.92 Ratio	−16.2%
N#CC(c1ccccc1)N(CCCCCCN(C(=O)c1ccccc1)C(C#N)c1ccccc1)C(=O)c1ccccc1 (centres unmarked) [Compound 681744]			0.98 Ratio	20.4%
COc1ccc(-c2cc(-c3ccccc3)nc3c2CC(=O)Nc2ccccc2-3)cc1OC [Compound 682769]			0.96 Ratio	−7.3%
NC1N=C(c2ccc(Cl)cc2)C2=C(N1)c1ccccc1CC2 (centres unmarked) [Compound 682864]			0.97 Ratio	−1.8%
COc1ccc2cc(CN3CCC(C4CCN(Cc5ccc6cc(OC)ccc6c5)CC4)CC3)ccc2c1.Cl [Compound 683792]			0.93 Ratio	−8.0%
O=C1Cc2c(-c3ccccc3)cc(-c3cccc(Cl)c3)nc2-c2ccccc2N1 [Compound 684480]	−35.3%	1.04 Ratio		
CCOC(=O)NC(Nc1ccc(F)cc1)(C(=O)OCC)C(F)(F)F (centres unmarked) [Compound 684845]	−5.0%	0.91 Ratio		
COC(=O)C1=C(C(=O)OC)SC2(S1)C(C(=O)OC)=C(C(=O)OC)Sc1c2ssc1=O [Compound 686349]			0.85 Ratio	−14.4%

Structure (SMILES)	Inh. (%) (Inhibition) (MBHA with a DNA substrate)	Int.* (Ratio) (Interference) [1]	Int.* (Ratio) (Interference) [2]	Inh. (%) (Inhibition) (MBHA with DNA substrate)
CC(C)[Si]1(C(C)C)OCC2OC(n3cnc4c(N)ncnc43)C(N)C2O[Si](C(C)C)(C(C)C)O1 (centres unmarked) [Compound 687330]			0.91 Ratio	−12.1%
COc1ccc(/C=C2\CCCc3ccccc3C2=O)cc1 [Compound 687667]	−29.0%	1.00 Ratio		
C=CC(=O)N1C/C(=C\c2ccc(Cl)cc2)C(=O)/C(=C/c2ccc(Cl)cc2)C1 [Compound 687849]	−5.2%	0.93 Ratio		
C=CC(=O)N1C/C(=C\c2ccc([N+](=O)[O-])cc2)C(=O)/C(=C/c2ccc([N+](=O)[O-])cc2)C1 [Compound 687852]			0.94 Ratio	−11.6%
CNC(=O)c1cc(NC(=O)N(CCC#N)CCN(C(=O)N[C@@H](Cc2ccccc2)C(=O)N[C@@H](CC(C)C)C(=O)NC)c2ccccc2)ccc1OC [Compound 688363]			0.96 Ratio	−1.6%
COc1cc(OC)c2c(C)cc(=O)oc2c1 [Compound 688795]	9.3%	1.02 Ratio		
CCCCCC(/C=C/[C@@H]1CC(=O)C[C@H]1O[Si](C)(C)C(C)(C)C)OCOCCOC (some centres unmarked) [Compound 689228]			1.04 Ratio	−10.4%
O=C(OCC12CC3CC(CC(C3)C1)C2)c1ccc(NCc2cc(O)ccc2O)cc1 [Compound 689857]	−22.3%	0.87 Ratio		
COc1ccc2nc3cc([N+](=O)[O-])ccc3c(NNc3ccccc3)c2c1 [Compound 689872]			1.01 Ratio	−2.4%
O=[N+]([O-])c1cccc2nc3ccccc3c(NCCCNc3c4ccccc4nc4cccc([N+](=O)[O-])c34)c12 [Compound 690634]			0.82 Ratio	−10.3%
CCOC(=O)c1ccc(-c2cc(C)no2)[nH]1 [Compound 693053]			0.93 Ratio	−18.5%
C/C(=N\Nc1nc2ccccc2s1)c1ccncn1 [Compound 693632]	−26.4%	0.98 Ratio		
CON(C)C(=O)C1CCCO1 (centres unmarked) [Compound 695218]			0.99 Ratio	13.3%
CN(C)CC1CCC/C(=C\c2ccc(OC(=O)/C=C/c3ccccc3)cc2)C1=O.Cl (centres unmarked) [Compound 697443]	11.6%	1.01 Ratio		
CC(=O)NC1C(OCc2ccccc2)OC(CO)C(O)C1OC(C)C(=O)NC(C(=O)NC(CCC(=O)NCCCCNc1c2ccccc2nc2cccc([N+](=O)[O-])c12)C(N)=O)C(C)C (centres unmarked) [Compound 697468]	−23.8%	0.97 Ratio		
CC1=C(N2CC2)C(=O)C(CO)=C(N2CC2)C1=O [Compound 697726]	−5.6%	0.90 Ratio		
Cc1ccc(S(=O)(=O)c2ccc([N+](=O)[O-])o2)cc1 [Compound 697923]			1.07 Ratio	−14.4%
Cc1nnc(-n2c(O)cc(=O)n(-c3ccccc3)c2=S)nc1/C=C/c1ccc(N(C)C)cc1 [Compound 698031]			0.98 Ratio	−16.0%
CN(C)c1ccc(C=c2c3ccccc3n3c2cc(-c2ccc(Cl)cc2)[n+]3C)cc1.O=S(=O)([O-])C(F)(F)F [Compound 699479]			0.38 Ratio	45.1%
CCCCn1c2c(n(CCCC)c1=S)-c1c(n(CCCC)c(=S)n1CCCC)SSSS2 [Compound 700582]			0.93 Ratio	−16.2%
